# Reference: publication PMC11126936, “Reactivating Hippo by drug compounds to suppress gastric cancer and enhance chemotherapy sensitivity” (The Journal of Biological Chemistry, 2024)
# Values joined by “and” are separate entries in the source; they are usually repeats but may differ in a detail not shown here. Equal values may be shown once. “Also recorded” adds a separate entry of the source. Read-outs that look alike come from different tables or passages of the source.
# T1: MST2 (Homo sapiens, UniProt Q13188)
# T1 construct: made in house; host or cells: E. coli BL21 Codon plus (DE3)
# T1 sequence (Q13188 1-491): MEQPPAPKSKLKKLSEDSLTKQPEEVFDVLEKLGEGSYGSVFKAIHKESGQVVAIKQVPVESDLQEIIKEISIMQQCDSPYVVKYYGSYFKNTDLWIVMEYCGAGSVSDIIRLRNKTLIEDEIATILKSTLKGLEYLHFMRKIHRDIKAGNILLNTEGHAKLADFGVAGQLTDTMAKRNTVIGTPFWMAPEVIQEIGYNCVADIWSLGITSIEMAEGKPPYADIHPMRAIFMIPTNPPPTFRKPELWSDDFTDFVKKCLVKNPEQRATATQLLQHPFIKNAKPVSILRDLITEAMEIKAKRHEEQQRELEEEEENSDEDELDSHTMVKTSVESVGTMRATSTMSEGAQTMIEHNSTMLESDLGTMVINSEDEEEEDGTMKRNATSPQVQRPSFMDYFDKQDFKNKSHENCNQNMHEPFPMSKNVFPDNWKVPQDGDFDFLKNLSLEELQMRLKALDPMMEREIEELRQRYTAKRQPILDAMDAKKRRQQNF
# T2: purified MST2 recombinant protein (UniProt Q13188)
# T2 sequence (Q13188 1-491, species assumed, looked up): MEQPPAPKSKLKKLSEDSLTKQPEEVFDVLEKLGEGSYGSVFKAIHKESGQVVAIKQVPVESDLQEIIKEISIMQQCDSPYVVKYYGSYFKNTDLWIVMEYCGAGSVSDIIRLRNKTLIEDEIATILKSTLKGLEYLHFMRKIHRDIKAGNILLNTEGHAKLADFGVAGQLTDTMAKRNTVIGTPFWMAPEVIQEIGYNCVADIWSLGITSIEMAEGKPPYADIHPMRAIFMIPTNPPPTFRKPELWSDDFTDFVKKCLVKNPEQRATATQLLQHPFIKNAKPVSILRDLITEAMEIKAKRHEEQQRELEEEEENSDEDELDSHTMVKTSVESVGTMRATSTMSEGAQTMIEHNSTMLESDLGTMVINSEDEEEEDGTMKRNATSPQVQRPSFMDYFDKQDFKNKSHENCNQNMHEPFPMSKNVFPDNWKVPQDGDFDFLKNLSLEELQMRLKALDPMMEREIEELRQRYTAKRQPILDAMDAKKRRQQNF
# T3: MBP-tagged MST2 (amino acid 1–308) (UniProt Q13188 1-308)
# T3 construct: MST2 kinase, amino acid 1-308; also called MBP-MST2; source: E. coli BL21 Coden plus (DE3), purified (MBP beads, size-exclusion chromatography)
# T3 sequence (looked up): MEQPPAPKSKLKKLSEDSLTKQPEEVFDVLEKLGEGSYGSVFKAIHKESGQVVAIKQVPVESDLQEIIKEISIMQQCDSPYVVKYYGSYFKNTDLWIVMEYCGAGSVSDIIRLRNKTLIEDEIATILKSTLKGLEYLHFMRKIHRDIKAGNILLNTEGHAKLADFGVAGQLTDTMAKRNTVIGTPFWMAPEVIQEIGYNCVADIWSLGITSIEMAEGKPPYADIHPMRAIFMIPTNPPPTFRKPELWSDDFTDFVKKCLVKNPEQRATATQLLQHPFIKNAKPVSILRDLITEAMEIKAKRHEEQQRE
# T4: GST-tagged MST2 (amino acid 1–308) (UniProt Q13188 1-308)
# T4 construct: MST2 kinase, amino acid 1-308; also called GST-MST2; source: E. coli BL21 Coden plus (DE3), purified (GST beads, size-exclusion chromatography)
# T4 sequence (looked up): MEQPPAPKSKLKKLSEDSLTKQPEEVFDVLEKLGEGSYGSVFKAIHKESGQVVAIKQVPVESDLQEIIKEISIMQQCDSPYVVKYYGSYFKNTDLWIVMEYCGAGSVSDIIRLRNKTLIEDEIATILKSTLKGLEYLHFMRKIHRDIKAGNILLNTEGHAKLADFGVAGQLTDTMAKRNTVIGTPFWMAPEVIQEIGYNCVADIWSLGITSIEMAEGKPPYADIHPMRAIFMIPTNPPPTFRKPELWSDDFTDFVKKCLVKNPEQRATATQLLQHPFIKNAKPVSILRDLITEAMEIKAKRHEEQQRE
# How the values were obtained:
# MST2 = target: T1, MST2; test: MST assay, binding to MST2
# HGC-27 cells [1] = test: Cell viability assay in HGC-27 cells; type: cell-based, human; conditions: for inhibition of HGC-27 cell growth / viability: result in words
# [2] = tested on: YAP target gene CTGF in HGC-27 cells; test: CTGF mRNA (qPCR) in HGC-27 cells; conditions: 48 h
# STRN3–MST2 interaction = target: T5, STRN3–MST2 interaction (Homo sapiens, UniProt Q13188); test: MBP/GST pull-down and Co-IP, STRN3–MST2; type: binding
# T5 construct: GST-tagged MST2 (amino acid 1–308), MBP-tagged MST2 (amino acid 1–308); made in house; host or cells: E. coli BL21 Codon plus (DE3)
# MKN-28 cells = test: Killing efficiency in MKN-28 cells; type: cell-based, human
# HEK293A cells = test: DNA repair after etoposide (residual γ-H2AX immunoblot); type: cell-based; conditions: 20 μM etoposide 2 h, then with or without compound 6 h
# HGC-27 cells [3] = test: Colony formation assay in HGC-27 cells; conditions: about 2 weeks
# Procedure: After about 2 weeks incubation, cell colonies were identified by their being stained with 1% crystal violet dye. And colonies with diameters of >1 mm were counted.
# MST2^Mut (L33/E35/V41A) = target: T6, MST2^Mut (L33/E35/V41A) (Homo sapiens, UniProt Q13188, E35A/L33A/V41A); test: MST assay, binding to MST2 mutant; conditions: L33/E35/V41 substituted with alanine
# T6 construct: the mutant MBP-tagged MST2 (amino acid 1–308, L33/E35/V41A); MBP; made in house; host or cells: E. coli BL21 Codon plus (DE3)
# [4] = tested on: YAP target gene CTGF in GES-1 cells; test: CTGF mRNA (qPCR) in GES-1 cells; conditions: 48 h
# zebrafish larvae = conditions: ref [65], [66]; cited from earlier work
# AGS cells = test: Killing efficiency in AGS cells; type: cell-based, human
# PP2Aa = target: T7, PP2Aa (Homo sapiens, UniProt P30153); test: MST assay, binding to PP2Aa
# T7 construct: GST; made in house; host or cells: E. coli BL21 Codon plus (DE3)
# PP2Aa–STRN3 interaction [5] = target: T8, PP2Aa–STRN3 interaction (Homo sapiens, UniProt P30153); test: Co-IP of HA-PP2Aa and Flag-STRN3 in HEK293A cells; type: cell-based; parameters: expressed in transfected cells; host or cells: HEK293A
# Target sequence in this assay (P30153 whole entry): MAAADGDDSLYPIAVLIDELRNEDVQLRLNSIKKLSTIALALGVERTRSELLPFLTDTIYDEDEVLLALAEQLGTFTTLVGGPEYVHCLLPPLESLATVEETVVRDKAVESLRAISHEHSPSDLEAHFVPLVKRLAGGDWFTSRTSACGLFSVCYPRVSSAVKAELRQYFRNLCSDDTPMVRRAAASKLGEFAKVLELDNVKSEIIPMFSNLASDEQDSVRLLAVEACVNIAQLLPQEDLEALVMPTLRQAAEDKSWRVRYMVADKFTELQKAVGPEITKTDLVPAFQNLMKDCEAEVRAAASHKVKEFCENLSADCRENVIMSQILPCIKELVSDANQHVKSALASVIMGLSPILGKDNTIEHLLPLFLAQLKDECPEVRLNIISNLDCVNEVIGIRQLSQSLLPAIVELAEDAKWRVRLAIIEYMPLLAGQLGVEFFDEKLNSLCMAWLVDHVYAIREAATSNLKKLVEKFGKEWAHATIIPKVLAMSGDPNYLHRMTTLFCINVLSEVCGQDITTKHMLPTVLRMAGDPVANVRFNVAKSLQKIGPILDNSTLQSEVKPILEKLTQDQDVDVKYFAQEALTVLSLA
# PP2Aa–STRN3 interaction [6] = target: T8, PP2Aa–STRN3 interaction; test: GST pulldown assay, PP2Aa–STRN3; type: binding; parameters: GST; SUMO; made in house; host or cells: E. coli BL21 Codon plus (DE3); conditions: recombinant GST-PP2Aa and His-Sumo-STRN3; up to 10 μM compound
# Target sequence in this assay (P30153 8-589): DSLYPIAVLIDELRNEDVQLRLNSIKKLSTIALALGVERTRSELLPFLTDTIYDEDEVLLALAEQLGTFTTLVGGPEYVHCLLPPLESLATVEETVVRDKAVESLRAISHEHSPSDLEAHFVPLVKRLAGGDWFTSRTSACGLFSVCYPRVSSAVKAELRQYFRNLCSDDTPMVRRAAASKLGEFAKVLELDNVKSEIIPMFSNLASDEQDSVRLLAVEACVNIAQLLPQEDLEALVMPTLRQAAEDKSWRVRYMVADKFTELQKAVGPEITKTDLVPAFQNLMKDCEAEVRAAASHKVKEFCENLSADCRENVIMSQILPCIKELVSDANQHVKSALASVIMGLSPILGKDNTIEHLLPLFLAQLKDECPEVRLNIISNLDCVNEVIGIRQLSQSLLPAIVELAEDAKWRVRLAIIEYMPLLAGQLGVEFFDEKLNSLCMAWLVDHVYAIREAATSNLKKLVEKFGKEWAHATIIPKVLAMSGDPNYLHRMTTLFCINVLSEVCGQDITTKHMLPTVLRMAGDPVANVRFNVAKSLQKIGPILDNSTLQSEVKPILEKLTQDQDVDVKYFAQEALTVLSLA
# NUGC-4 cells = test: NUGC-4 cell viability, XMU-MP-1 with cisplatin; type: cell-based, human
# AGS cells xenograft = test: AGS xenograft tumor model; conditions: intratumoral injection, five consecutive days, vs control
# Procedure: Briefly, healthy male 615 mice were maintained in pathogen-free conditions. Mice were first injected with 2 × 10^6 AGS cells/per mouse into their flanks to induce tumor formation. Once the tumor volume reached about 100 mm^3, mice were injected intratumorally with indicted inhibitors for five successive days. Two weeks later, the mice were euthanized and then their tumors were harvested and weighed.
# 11 different GC cells = test: Cisplatin cell viability in 11 GC cell lines; conditions: read-out: IC50, cisplatin-sensitive GC cell lines; cell lines with higher pMST1/2 such as NUGC-4
# purified PP2Aa (8–589) [7] = target: T9, purified PP2Aa (8–589) (UniProt P30153 8-589); test: MST; Monolith NT.115, 25 °C, fluorescent-labeled protein; STRN3 to PP2Aa, also with DSF or TH added; conditions: both partners purified
# T9 construct: As used in ITC and MST
# purified PP2Aa (8–589) [8] = target: T9, purified PP2Aa (8–589); conditions: both partners purified
# [9] = target: T2, purified MST2 recombinant protein; test: MST; Monolith NT.115, 25 °C, fluorescent-labeled protein; STRN3 and MST2 without CX
# [10] = target: T3, MBP-tagged MST2 (amino acid 1–308); conditions: both partners purified
# [11] = target: T4, GST-tagged MST2 (amino acid 1–308); conditions: both partners purified
# [12] = Homo sapiens, HGC-27, cell viability, read-out: IC50 values in HGC-27 cells
# [13] = cell viability, read-out: IC50 values in HGC-27 cells
# T7 sequence (P30153 8-589): as above
# T9 sequence (P30153 8-589): as above
# T6 sequence (Q13188 1-308 L33A/E35A/V41A): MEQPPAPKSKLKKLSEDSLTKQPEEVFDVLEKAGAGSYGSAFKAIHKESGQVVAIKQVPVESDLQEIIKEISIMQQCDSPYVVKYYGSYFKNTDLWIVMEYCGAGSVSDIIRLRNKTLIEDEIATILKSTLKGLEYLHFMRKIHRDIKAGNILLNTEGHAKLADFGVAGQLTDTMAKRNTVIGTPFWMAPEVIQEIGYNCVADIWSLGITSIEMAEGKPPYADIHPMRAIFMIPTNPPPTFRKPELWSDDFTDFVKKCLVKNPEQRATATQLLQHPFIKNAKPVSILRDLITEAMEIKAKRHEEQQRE
molecule,measurement,setting,value
"CN1CCCN(C(=O)c2cccc(-c3ccc(C=C4C(=O)Nc5ccc(Cl)cc54)o3)c2)CC1 [CX, CX-6258]",Kd,MST2,0.339 µM
same,effect on STRN3–MST2 binding,MST2; in the presence of compound,could not bind with each other in the presence of CX
same,inhibition of HGC-27 cell growth / viability,HGC-27 cells [1],significantly inhibit; also recorded: inhibited the cell viability; also recorded: comparable with DSF
same,mRNA levels of YAP target gene CTGF,[2],dose-dependently decreased
same,STRN3–MST2 interaction in MBP pull-down,STRN3–MST2 interaction,able to disrupt
same,sensitization of GC cells to cisplatin,MKN-28 cells; 1 μM CX and 20 μM cisplatin,greatly sensitized GC cells to cisplatin
same,DNA repair (residual γ-H2AX),HEK293A cells,markedly attenuated the repair
same,colony formation of HGC-27 cells,HGC-27 cells [3],inhibited
same,binding to MST2^Mut,MST2^Mut (L33/E35/V41A),failed to bind with CX
O=c1c2ccccc2[se]n1-c1ccccc1 [Ebselen],IC50,HGC-27 cells [1]; [12],27.5 µM
Oc1cc2c(cc1O)C1c3ccc(O)c(O)c3OCC1(O)C2 (centres unmarked) [HAEMATOXYLIN],IC50,HGC-27 cells [1]; [12],37.9 µM
O=C([O-])c1ccccc1-c1c2cc(Br)c(=O)cc-2oc2[c]([Hg+])c([O-])c(Br)cc12.[Na+].[Na+].[OH-] [Merbromin],IC50,HGC-27 cells [1]; [13],15.2 µM
CC(=O)[O][Hg][c]1ccccc1 [Phenylmercuric acetate],IC50,"HGC-27 cells [1]; cell viability, listed as phenylmercuric acetate, read-out: IC50 values in HGC-27 cells",< 5 µM
same,IC50,HGC-27 cells [1]; [13],4.05 µM
Cc1ccc(C(=O)Nc2ccc(S(=O)(=O)[O-])c3cc(S(=O)(=O)[O-])cc(S(=O)(=O)[O-])c23)cc1NC(=O)c1cccc(NC(=O)Nc2cccc(C(=O)Nc3cc(C(=O)Nc4ccc(S(=O)(=O)[O-])c5cc(S(=O)(=O)[O-])cc(S(=O)(=O)[O-])c45)ccc3C)c2)c1.[Na+].[Na+].[Na+].[Na+].[Na+].[Na+] [Suramin Sodium Salt],inhibition of HGC-27 cell growth / viability,HGC-27 cells [1],not
same,STRN3–MST2 interaction in MBP pull-down,STRN3–MST2 interaction,able to disrupt
"CN(C)C(=S)SSC(=S)N(C)C [TH, thiram]",mRNA levels of YAP target gene CTGF,[4],no significant change
same,IC50,HGC-27 cells [1]; [12],0.4 µM
same,effect of addition of copper ion on suppression of HGC-27 cell viability by the compound,HGC-27 cells [1]; compound-Cu complex vs compound,markedly enhanced
same,adverse effects in zebrafish larvae,zebrafish larvae,adverse effects
same,sensitization of GC cells to cisplatin,AGS cells; 0.1 μM TH and 10 μM cisplatin,significantly sensitized GC cells to cisplatin
same,Kd,PP2Aa,1.52 µM
same,binding affinity to PP2Aa relative to that of STRN3 to PP2Aa,PP2Aa,14 fold
same,effect on binding of STRN3 to PP2Aa,PP2Aa; compound added,efficiently disrupt
same,PP2Aa–STRN3 interaction in Co-IP,PP2Aa–STRN3 interaction [5],further validated by Co-IP assay
same,DNA repair (residual γ-H2AX),HEK293A cells,decreased
same,colony formation of HGC-27 cells,HGC-27 cells [3],significantly inhibited colony formation
same,PP2Aa–STRN3 association in GST pulldown,PP2Aa–STRN3 interaction [6],efficiently disrupt
COc1cc2c(NC3CCN(CC4CCCCC4)CC3)nc(N3CCCN(C(C)C)CC3)nc2cc1OCCCN1CCCCC1 [UNC0631],IC50,HGC-27 cells [1]; [13],< 5 µM and 2.86 µM
COc1ccc(C(=O)O[C@H]2CC[C@@]3(C)[C@@H]4CC[C@H]5[C@]6(O)C[C@H](O)[C@@]7(O)[C@@H](CN8C[C@@H](C)CC[C@H]8[C@@]7(C)O)[C@]6(O)C[C@@]53O[C@]24O)cc1OC [Veratridine],IC50,"HGC-27 cells [1]; Homo sapiens, HGC-27, read-out: IC50 values in HGC-27 cells",15.7 µM
CN1C(=O)c2sccc2N(C)c2nc(Nc3ccc(S(N)(=O)=O)cc3)ncc21 [XMU-MP-1],effect of co-treatment on cisplatin sensitivity,NUGC-4 cells,triggered much more resistance to cisplatin
N.N.[Cl][Pt][Cl] [cisplatin],efficiency in killing cancer cells,"AGS cells; 0.05 μM DSF, 20 μM cisplatin, alone or combined",about 20%
same,tumor weight / tumor growth,AGS cells xenograft,modestly lower tumor weights
same,efficiency in killing cancer cells,"MKN-28 cells; nontoxic concentrations, alone or combined",about 20%
same,IC50,11 different GC cells,< 20 µM
"STRN3 (64–145) (domain or fragment, UniProt Q13033 64-145, looked up, STRN3 (striatin-3), amino acid 64-145) TIPGILHYIQHEWARFEMERAHWEVERAELQARIAFLQGERKGQENLKKDLVRRIKMLEYALKQERAKYHKLKYGTELNQGD",Kd,purified PP2Aa (8–589) [7],20.7 µM
same,Kd,purified PP2Aa (8–589) [8],11.9 µM
same,Kd,[9],0.624 µM
"His-SUMO-tagged STRN3 (amino acid 64–145) (domain or fragment, UniProt Q13033 64-145, looked up, STRN3 (striatin-3), amino acid 64-145; Used where the tag is named or used for capture: the GST and MBP pull-downs and the nickel chelate acceptor beads of the AlphaScreen; also called HS-STRN3; His-tagged STRN3) TIPGILHYIQHEWARFEMERAHWEVERAELQARIAFLQGERKGQENLKKDLVRRIKMLEYALKQERAKYHKLKYGTELNQGD",binding result,[10],binds
same,binding result,[11],binds
"STRN3: recombinant His-SUMO-tagged STRN3 (amino acid 64–145), binding partner of PP2Aa and MST2 (protein, UniProt Q13033 64-145, looked up, fragment, His-SUMO tag) TIPGILHYIQHEWARFEMERAHWEVERAELQARIAFLQGERKGQENLKKDLVRRIKMLEYALKQERAKYHKLKYGTELNQGD",Kd,MST2,0.624 µM
